Source: PubChem BioAssay AID1963446 (Molecular Pharmacology Branch, DTP, NCI, 2024)
One block for each compound: values may come before it.

Tested on: 993429-296-R-J1-PDC complex spheroid growth, percent test/control
Assay: Anticancer human tumor 993429-296-R-J1-PDC patient-derived uterine sarcoma cell line growth inhibition [Asc]
Details: for IC50: curve of first compound; for viability, T/C: stronger effect = lower value
Summary of the method: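 Spheroid model: tumor line + HUVEC + hMSC. Single agents and combinations; top conc. at/near clinical Cmax (10 microM if undetermined), half-log dilutions. DMSO stocks at 800-fold test concentration.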

[1] = second compound 0.03 µM, first compound 0.0316 µM
[2] = second compound 0.03 µM, first compound 0.1 µM
[3] = second compound 0.03 µM, first compound 0.316 µM
[4] = second compound 0.03 µM, first compound 1 µM
[5] = second compound 0.03 µM, first compound 3.16 µM
[6] = second compound 0.03 µM, first compound 10 µM
[7] = second compound 0.0949 µM, first compound 0.0316 µM
[8] = second compound 0.0949 µM, first compound 0.1 µM
[9] = second compound 0.0949 µM, first compound 0.316 µM
[10] = second compound 0.0949 µM, first compound 1 µM
[11] = second compound 0.0949 µM, first compound 3.16 µM
[12] = second compound 0.0949 µM, first compound 10 µM
[13] = second compound 0.3 µM, first compound 0.0316 µM
[14] = second compound 0.3 µM, first compound 0.1 µM
[15] = second compound 0.3 µM, first compound 0.316 µM
[16] = second compound 0.3 µM, first compound 1 µM
[17] = second compound 0.3 µM, first compound 3.16 µM
[18] = second compound 0.3 µM, first compound 10 µM
[19] = second compound 0.949 µM, first compound 0.0316 µM
[20] = second compound 0.949 µM, first compound 0.1 µM
[21] = second compound 0.949 µM, first compound 0.316 µM
[22] = second compound 0.949 µM, first compound 1 µM
[23] = second compound 0.949 µM, first compound 3.16 µM
[24] = second compound 0.949 µM, first compound 10 µM
[25] = second compound 3 µM, first compound 0.0316 µM
[26] = second compound 3 µM, first compound 0.1 µM
[27] = second compound 3 µM, first compound 0.316 µM
[28] = second compound 3 µM, first compound 1 µM
[29] = second compound 3 µM, first compound 3.16 µM
[30] = second compound 3 µM, first compound 10 µM
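Also: spheroids exposed to compounds for seven days.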

IC50 (second compound 0.03 µM): 1100 nM
IC50 (second compound 0.0949 µM): 1200 nM
IC50 (second compound 0.3 µM): 1010 nM
IC50 (second compound 0.949 µM): 1300 nM
IC50 (second compound 3 µM): 1580 nM
Structure (SMILES): C=C(F)C(=O)N1CCN(c2nc(OCC3CCCN3C)nc3c2CCN(c2cccc4cccc(Cl)c24)C3)CC1CC#N (stereo not given) + CCN1C(C(=O)NC23CCC(C(=O)O)(CC2)CC3)C(c2cccc(Cl)c2F)C2(C(=O)Nc3cc(Cl)ccc32)C12CCCCC2
viability, T/C [1]: 97.6%
viability, T/C [2]: 95.3%
viability, T/C [3]: 103%
viability, T/C [4]: 54%
viability, T/C [5]: 7.9%
viability, T/C [6]: 0.1%
viability, T/C [7]: 98.4%
viability, T/C [8]: 98.2%
viability, T/C [9]: 85.2%
viability, T/C [10]: 59.8%
viability, T/C [11]: 8.82%
viability, T/C [12]: 0.11%
viability, T/C [13]: 89.2%
viability, T/C [14]: 104%
viability, T/C [15]: 105%
viability, T/C [16]: 50.5%
viability, T/C [17]: 10.4%
viability, T/C [18]: 0.1%
viability, T/C [19]: 93%
viability, T/C [20]: 88.3%
viability, T/C [21]: 78.2%
viability, T/C [22]: 63.9%
viability, T/C [23]: 5.95%
viability, T/C [24]: 0.11%
viability, T/C [25]: 107%
viability, T/C [26]: 86.2%
viability, T/C [27]: 81.7%
viability, T/C [28]: 78.1%
viability, T/C [29]: 7.46%
viability, T/C [30]: 0.15%

IC50 (second compound 0.1 µM): 7.5 nM
IC50 (second compound 0.316 µM): 9.6 nM
IC50 (second compound 1 µM): 4.44 nM
IC50 (second compound 3.16 µM): < 3.16 nM
IC50 (second compound 10 µM): 15.8 nM
Structure (SMILES): O=C(c1ccc(F)c(F)c1Nc1ccc(I)cc1F)N1CC(O)([C@@H]2CCCCN2)C1 + Cc1c(S(C)(=O)=O)c(-c2cc(F)cc(N3CCN(c4ccc(NS(=O)(=O)c5ccc(NC(CCN6CCC(C(=O)OCCCP(=O)(O)O)CC6)CSc6ccccc6)c(S(=O)(=O)C(F)(F)F)c5)cc4)CC3)c2)c(-c2ccc(Cl)cc2)n1C(C)C
viability, T/C (second compound 0.1 µM, first compound 0.00316 µM): 63%
viability, T/C (second compound 0.1 µM, first compound 0.01 µM): 42.8%
viability, T/C (second compound 0.1 µM, first compound 0.0316 µM): 31.9%
viability, T/C (second compound 0.1 µM, first compound 0.1 µM): 10.2%
viability, T/C (second compound 0.1 µM, first compound 0.316 µM): 1.93%
viability, T/C (second compound 0.1 µM, first compound 1 µM): 0.33%
viability, T/C (second compound 0.316 µM, first compound 0.00316 µM): 55.9%
viability, T/C (second compound 0.316 µM, first compound 0.01 µM): 52.7%
viability, T/C (second compound 0.316 µM, first compound 0.0316 µM): 29.1%
viability, T/C (second compound 0.316 µM, first compound 0.1 µM): 15.3%
viability, T/C (second compound 0.316 µM, first compound 0.316 µM): 1.67%
viability, T/C (second compound 0.316 µM, first compound 1 µM): 0.23%
viability, T/C (second compound 1 µM, first compound 0.00316 µM): 57.6%
viability, T/C (second compound 1 µM, first compound 0.01 µM): 30.8%
viability, T/C (second compound 1 µM, first compound 0.0316 µM): 19.3%
viability, T/C (second compound 1 µM, first compound 0.1 µM): 5.07%
viability, T/C (second compound 1 µM, first compound 0.316 µM): 0.22%
viability, T/C (second compound 1 µM, first compound 1 µM): 0.14%
viability, T/C (second compound 3.16 µM, first compound 0.00316 µM): 39.2%
viability, T/C (second compound 3.16 µM, first compound 0.01 µM): 30.8%
viability, T/C (second compound 3.16 µM, first compound 0.0316 µM): 21.1%
viability, T/C (second compound 3.16 µM, first compound 0.1 µM): 2.83%
viability, T/C (second compound 3.16 µM, first compound 0.316 µM): 0.52%
viability, T/C (second compound 3.16 µM, first compound 1 µM): 0.18%
viability, T/C (second compound 10 µM, first compound 0.00316 µM): 72%
viability, T/C (second compound 10 µM, first compound 0.01 µM): 68.7%
viability, T/C (second compound 10 µM, first compound 0.0316 µM): 21.6%
viability, T/C (second compound 10 µM, first compound 0.1 µM): 3.49%
viability, T/C (second compound 10 µM, first compound 0.316 µM): 0.84%
viability, T/C (second compound 10 µM, first compound 1 µM): 0.16%

IC50 (second compound 0.1 µM): > 3000 nM
IC50 (second compound 0.316 µM): 1270 nM
IC50 (second compound 1 µM): 951 nM
IC50 (second compound 3.16 µM): < 9.49 nM
IC50 (second compound 10 µM): > 3000 nM
Structure (SMILES): CCN1C(C(=O)NC23CCC(C(=O)O)(CC2)CC3)C(c2cccc(Cl)c2F)C2(C(=O)Nc3cc(Cl)ccc32)C12CCCCC2 (stereo not given) + Cc1c(S(C)(=O)=O)c(-c2cc(F)cc(N3CCN(c4ccc(NS(=O)(=O)c5ccc(NC(CCN6CCC(C(=O)OCCCP(=O)(O)O)CC6)CSc6ccccc6)c(S(=O)(=O)C(F)(F)F)c5)cc4)CC3)c2)c(-c2ccc(Cl)cc2)n1C(C)C
viability, T/C (second compound 0.1 µM, first compound 0.00949 µM): 88.1%
viability, T/C (second compound 0.1 µM, first compound 0.03 µM): 76.6%
viability, T/C (second compound 0.1 µM, first compound 0.0949 µM): 94.8%
viability, T/C (second compound 0.1 µM, first compound 0.3 µM): 66.4%
viability, T/C (second compound 0.1 µM, first compound 0.949 µM): 62.8%
viability, T/C (second compound 0.1 µM, first compound 3 µM): 58.5%
viability, T/C (second compound 0.316 µM, first compound 0.00949 µM): 63.1%
viability, T/C (second compound 0.316 µM, first compound 0.03 µM): 68.6%
viability, T/C (second compound 0.316 µM, first compound 0.0949 µM): 68.4%
viability, T/C (second compound 0.316 µM, first compound 0.3 µM): 55.5%
viability, T/C (second compound 0.316 µM, first compound 0.949 µM): 54.8%
viability, T/C (second compound 0.316 µM, first compound 3 µM): 39.9%
viability, T/C (second compound 1 µM, first compound 0.00949 µM): 57.6%
viability, T/C (second compound 1 µM, first compound 0.03 µM): 50.8%
viability, T/C (second compound 1 µM, first compound 0.0949 µM): 50.7%
viability, T/C (second compound 1 µM, first compound 0.3 µM): 61.4%
viability, T/C (second compound 1 µM, first compound 0.949 µM): 48%
viability, T/C (second compound 1 µM, first compound 3 µM): 28.4%
viability, T/C (second compound 3.16 µM, first compound 0.00949 µM): 47.1%
viability, T/C (second compound 3.16 µM, first compound 0.03 µM): 51.9%
viability, T/C (second compound 3.16 µM, first compound 0.0949 µM): 43.1%
viability, T/C (second compound 3.16 µM, first compound 0.3 µM): 44.4%
viability, T/C (second compound 3.16 µM, first compound 0.949 µM): 30.8%
viability, T/C (second compound 3.16 µM, first compound 3 µM): 22.3%
viability, T/C (second compound 10 µM, first compound 0.00949 µM): 81.3%
viability, T/C (second compound 10 µM, first compound 0.03 µM): 91.9%
viability, T/C (second compound 10 µM, first compound 0.0949 µM): 62.4%
viability, T/C (second compound 10 µM, first compound 0.3 µM): 67.7%
viability, T/C (second compound 10 µM, first compound 0.949 µM): 78.2%
viability, T/C (second compound 10 µM, first compound 3 µM): 51.1%

IC50 (second compound 0.03 µM): > 10000 nM
IC50 (second compound 0.0949 µM): > 10000 nM
IC50 (second compound 0.3 µM): > 10000 nM
IC50 (second compound 0.949 µM): > 10000 nM
IC50 (second compound 3 µM): > 10000 nM
Structure (SMILES): C=CC(=O)N1CCN(c2nc(=O)n(-c3c(C)ccnc3C(C)C)c3nc(-c4c(O)cccc4F)c(F)cc23)C(C)C1 (stereo not given) + CCN1C(C(=O)NC23CCC(C(=O)O)(CC2)CC3)C(c2cccc(Cl)c2F)C2(C(=O)Nc3cc(Cl)ccc32)C12CCCCC2
viability, T/C [1]: 96.1%
viability, T/C [2]: 101%
viability, T/C [3]: 108%
viability, T/C [4]: 86.2%
viability, T/C [5]: 114%
viability, T/C [6]: 76.1%
viability, T/C [7]: 102%
viability, T/C [8]: 106%
viability, T/C [9]: 103%
viability, T/C [10]: 106%
viability, T/C [11]: 96.5%
viability, T/C [12]: 70.5%
viability, T/C [13]: 88.8%
viability, T/C [14]: 102%
viability, T/C [15]: 102%
viability, T/C [16]: 106%
viability, T/C [17]: 107%
viability, T/C [18]: 85.7%
viability, T/C [19]: 102%
viability, T/C [20]: 91.2%
viability, T/C [21]: 128%
viability, T/C [22]: 100%
viability, T/C [23]: 94.9%
viability, T/C [24]: 78.3%
viability, T/C [25]: 100%
viability, T/C [26]: 87.6%
viability, T/C [27]: 97.9%
viability, T/C [28]: 96.3%
viability, T/C [29]: 90.4%
viability, T/C [30]: 77.9%
